Target: human recombinant PAK1-KD protein (Homo sapiens, UniProt Q13153)
Experiment: PAK1-KD (Kinase Domain) IC50 Zlyte Assay (FRET peptide substrate phosphorylation)
Settings: Z'-LYTE, Biological Example 1
Source text: PAK1-KD (Kinase Domain) IC50 Zlyte Assay Protocol
Activity of human recombinant PAK1-KD protein may be assessed in vitro by assay of the phosphorylation of a FRET peptide substrate. Catalytically active human recombinant PAK1-KD protein is obtained by purification from Tini cells infected with a human PAK1-KD recombinant baculovirus expression vector.
The activity/inhibition of PAK1-KD was estimated by measuring the phosphorylation of a FRET peptide substrate (Ser/Thr19) labeled with Coumarin and Fluorescein using Z′-LYTE™ assay (Invitrogen). The peptide substrate is a consensus sequence ([sequence]) based on various PAK substrates reported in the scientific literature. […] Incubations were carried out at 22° C. in black polypropylene 384-well plates (Corning Costar).

Chain of human recombinant PAK1-KD protein (Q13153 270-521 limits assumed): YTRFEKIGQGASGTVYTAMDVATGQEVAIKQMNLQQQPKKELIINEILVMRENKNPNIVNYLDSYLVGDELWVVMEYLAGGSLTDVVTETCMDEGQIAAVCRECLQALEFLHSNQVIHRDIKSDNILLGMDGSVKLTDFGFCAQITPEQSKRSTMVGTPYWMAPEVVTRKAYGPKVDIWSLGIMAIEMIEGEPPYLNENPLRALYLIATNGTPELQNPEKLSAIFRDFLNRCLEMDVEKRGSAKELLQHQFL

CNc1ncc2cc(-c3ccc(-c4cncc(C)n4)cc3Cl)c(=O)n(CCC3OCC(N)CO3)c2n1 (stereo not shown) [Example I-37, 8-[2-(5-amino-1,3-dioxan-2-yl)ethyl]-6-[2-chloro-4-(6-methylpyrazin-2-yl)phenyl]-2-(methylamino)pyrido[2,3-d]pyrimidin-7-one]
Ki: 7.5 nM

CNc1ncc2cc(-c3ccc(-c4cccc(C)n4)cc3Cl)c(=O)n(CC(=O)N3CCNCC3)c2n1 [Example I-107, 6-[2-Chloro-4-(6-methyl-2-pyridyl)phenyl]-2-(methylamino)-8-(2-oxo-2-piperazin-1-yl-ethyl)pyrido[2,3-d]pyrimidin-7-one]
Ki: 14.3 nM

CCNc1ncc2cc(-c3ccc(-c4cncc(C)n4)cc3Cl)c(=O)n(CCCCC(N)=O)c2n1 [Example I-49, 5-[6-[2-Chloro-4-(6-methylpyrazin-2-yl)phenyl]-2-(ethylamino)-7-oxo-pyrido[2,3-d]pyrimidin-8-yl]pentanamide]
Ki: 75.3 nM

Cc1cccc(-c2ccc(-c3cc4cnc(NC5COC5)nc4n(CCOCCN)c3=O)c(Cl)c2)n1 [Example I-63, 8-[2-(2-Aminoethoxy)ethyl]-6-[2-chloro-4-(6-methyl-2-pyridyl)phenyl]-2-(oxetan-3-ylamino)pyrido[2,3-d]pyrimidin-7-one]
Ki: 0.3 nM

CNc1ncc2cc(-c3ccc(-c4cncc(C)n4)cc3Cl)c(=O)n(C[C@H]3OC[C@H](NC)CO3)c2n1 [Example I-178, 6-[2-Chloro-4-(6-methylpyrazin-2-yl)phenyl]-2-(methylamino)-8-[[5-(methylamino)-1,3-dioxan-2-yl]methyl]pyrido[2,3-d]pyrimidin-7-one]
Ki: 13.5 nM

CNc1ncc2cc(-c3ccc(-c4cncc(C)n4)cc3Cl)c(=O)n(CC(=O)N3C[C@@H]4C[C@H]3CN4)c2n1 [Example I-155, 6-[2-Chloro-4-(6-methylpyrazin-2-yl)phenyl]-8-[2-[(1S,4S)-2 5-diazabicyclo[2.2.1]heptan-2-yl]-2-oxo-ethyl]-2-(methylamino)pyrido[2,3-d]pyrimidin-7-one]
Ki: 39.2 nM

CNc1ncc2cc(-c3ccc(-c4cncc(C)n4)cc3Cl)c(=O)n(CCC3CNC(=O)C3)c2n1 (stereo not shown) [Example I-109, 6-[2-Chloro-4-(6-methylpyrazin-2-yl)phenyl]-2-(methylamino)-8-[2-(5-oxopyrrolidin-3-yl)ethyl]pyrido[2,3-d]pyrimidin-7-one]
Ki: 43.3 nM

CCc1cc(-c2cccc(C)n2)ccc1-c1cc2cnc(NC3COC3)nc2n(C[C@@H]2CNCCO2)c1=O [Example I-194]
Ki: 26.5 nM

CNc1ncc2cc(-c3ccc(-c4csc(C5CC5)n4)cc3Cl)c(=O)n(C[C@@H]3CNCCO3)c2n1 [Example I-184, 6-[2-chloro-4-(2-cyclopropylthiazol-4-yl)phenyl]-2-(methylamino)-8-[[(2S)-morpholin-2-yl]methyl]pyrido[2,3-d]pyrimidin-7-one]
Ki: 43.1 nM

CNc1ncc2cc(-c3ccc(-c4cncc(C)n4)cc3Cl)c(=O)n(CC(=O)N3CCNCC3)c2n1 [Example I-84, 6-(2-Chloro-4-(6-methylpyrazin-2-yl)phenyl)-2-(methylamino)-8-(2-oxo-2-(piperazin-1-yl)ethyl)pyrido[2,3-d]pyrimidin-7(8H)-one]
Ki: 59.2 nM

Cc1cccc(-c2ccc(-c3cc4cnc(NC5COC5)nc4n(CCC4CNCCO4)c3=O)c(C)c2)n1 (single isomer, unassigned) [Example I-114, 6-(2-methyl-4-(6-methylpyridin-2-yl)phenyl)-8-(2-(morpholin-2-yl)ethyl)-2-(oxetan-3-ylamino)pyrido[2,3-d]pyrimidin-7(8H)-one]
Ki: 0.7 nM

CNc1ncc2cc(-c3ccc(-c4cccc(C)n4)cc3Cl)c(=O)n(C[C@@H]3CN(C)CCO3)c2n1 [Example I-183, 6-[2-chloro-4-(6-methyl-2-pyridyl)phenyl]-2-(methylamino)-8-[[(2S)-4-methylmorpholin-2-yl]methyl]pyrido[2,3-d]pyrimidin-7-one]
Ki: 26.8 nM

CCNCC(O)Cn1c(=O)c(-c2ccc(-c3cncc(C)n3)cc2Cl)cc2cnc(NCC)nc21 (stereo not shown) [Example I-25, 6-[2-chloro-4-(6-methylpyrazin-2-yl)phenyl]-2-(ethylamino)-8-[3-(ethylamino)-2-hydroxy-propyl]pyrido[2,3-d]pyrimidin-7-one]
Ki: 67.1 nM

CCNc1ncc2cc(-c3ccc(-c4cncc(C)n4)cc3Cl)c(=O)n(CCC(O)CO)c2n1 (stereo in doubt) [Example I-79, (R)-6-(2-Chloro-4-(6-methylpyrazin-2-yl)phenyl)-8-(3,4-dihydroxybutyl)-2-(ethylamino)pyrido[2,3-d]pyrimidin-7(8H)-one]
Ki: 43.5 nM

CNc1ncc2cc(-c3ccc(-c4cccc(C)n4)cc3C)c(=O)n(CCS(=O)(=O)CCN)c2n1 [Example I-174, 8-[2-(2-aminoethylsulfonyl)ethyl]-2-(methylamino)-6-[2-methyl-4-(6-methyl-2-pyridyl)phenyl]pyrido[2,3-d]pyrimidin-7-one]
Ki: 7.2 nM

CNc1ncc2cc(-c3ccc(-c4cccc(C)n4)cc3C)c(=O)n(CCC3CNCCO3)c2n1 (single isomer, unassigned) [Example I-104, 6-(2-Methyl-4-(6-methylpyridin-2-yl)phenyl)-2-(methylamino)-8-(2-(morpholin-2-yl)ethyl)pyrido[2,3-d]pyrimidin-7(8H)-one]
Ki: 2.3 nM

Cc1cccc(-c2ccc(-c3cc4cnc(NC(C)C)nc4n(CC(=O)N4CCNCC4)c3=O)c(C)c2)n1 [Example I-78, 2-(Isopropylamino)-6-(2-methyl-4-(6-methylpyridin-2-yl)phenyl)-8-(2-oxo-2-(piperazin-1-yl)ethyl)pyrido[2,3-d]pyrimidin-7(8H)-one]
Ki: 16 nM

CCc1cc(-c2cncc(C)n2)ccc1-c1cc2cnc(NC)nc2n(CCOCCN)c1=O [Example I-129, 8-[2-(2-aminoethoxy)ethyl]-6-[2-ethyl-4-(6-methylpyrazin-2-yl)phenyl]-2-(methylamino)pyrido[2,3-d]pyrimidin-7-one]
Ki: 27.5 nM

CNc1ncc2cc(-c3ccc(-c4cncc(C)n4)cc3Cl)c(=O)n(CCC3CCNC3=O)c2n1 (single isomer, unassigned) [Example I-102, 6-[2-Chloro-4-(6-methylpyrazin-2-yl)phenyl]-2-(methylamino)-8-[2-(2-oxopyrrolidin-3-yl)ethyl]pyrido[2,3-d]pyrimidin-7-one]
Ki: 38.1 nM

CCNc1ncc2cc(-c3ccc(-c4cccc(C)n4)cc3Cl)c(=O)n(CC[C@H](O)CO)c2n1 [Example I-123, 6-[2-Chloro-4-(6-methyl-2-pyridyl)phenyl]-8-[(3S)-3,4-dihydroxybutyl]-2-(ethylamino)pyrido[2,3-d]pyrimidin-7-one]
Ki: 7.08 nM

CCNc1ncc2cc(-c3ccc(-c4cccc(C)n4)cc3Cl)c(=O)n(CC(=O)N3CCNCC3)c2n1 [Example I-34, 6-[2-Chloro-4-(6-methyl-2-pyridyl)phenyl]-2-(ethylamino)-8-(2-oxo-2-piperazin-1-yl-ethyl)pyrido[2,3-d]pyrimidin-7-one]
Ki: 4 nM

CNc1ncc2cc(-c3ccc(-c4cccc(C)n4)cc3Cl)c(=O)n(CCC3CNCCS3(=O)=O)c2n1 (stereo not shown) [Example I-202, 6-[2-chloro-4-(6-methyl-2-pyridyl)phenyl]-8-[2-(1,1-dioxo-1 4-thiazinan-2-yl)ethyl]-2-(methylamino)pyrido[2,3-d]pyrimidin-7-one]
Ki: 7.1 nM

CCNc1ncc2cc(-c3ccc(-c4cccc(C)n4)cc3C)c(=O)n(CCCC(=O)NC)c2n1 [Example I-74, 4-[2-(Ethylamino)-6-[2-methyl-4-(6-methyl-2-pyridyl)phenyl]-7-oxo-pyrido[2,3-d]pyrimidin-8-yl]-N-methyl-butanamide]
Ki: 15.5 nM

Cc1cncc(-c2ccc(-c3cc4cnc(N)nc4n(CCCCCN)c3=O)c(Cl)c2)n1 [Example I-88, 2-Amino-8-(5-aminopentyl)-6-[2-chloro-4-(6-methylpyrazin-2-yl)phenyl]pyrido[2,3-d]pyrimidin-7-one]
Ki: 313 nM

CCNc1ncc2cc(-c3ccc(-c4cccc(C)n4)cc3Cl)c(=O)n(CCN3CCNCC3)c2n1 [Example I-66, 6-(2-Chloro-4-(6-methylpyridin-2-yl)phenyl)-2-(ethylamino)-8-(2-(piperazin-1-yl)ethyl)pyrido[2,3-d]pyrimidin-7(8H)-one]
Ki: 0.9 nM

CCNc1ncc2cc(-c3ccc(-c4cc(C)cnn4)cc3Cl)c(=O)n(C[C@H]3CC[C@H](N)CC3)c2n1 [Example I-77, 8-(((1R,4R)-4-Aminocyclohexyl)methyl)-6-(2-chloro-4-(5-methylpyridazin-3-yl)phenyl)-2-(ethylamino)pyrido[2,3-d]pyrimidin-7(8H)-one]
Ki: 30.7 nM

CNc1ncc2cc(-c3ccc(-c4cccc(C)n4)cc3Cl)c(=O)n(CCS(=O)(=O)N3CCNCC3)c2n1 [Example I-141, 6-[2-chloro-4-(6-methyl-2-pyridyl)phenyl]-2-(methylamino)-8-(2-piperazin-1-ylsulfonylethyl)pyrido[2,3-d]pyrimidin-7-one]
Ki: 4 nM

Cc1cccc(-c2ccc(-c3cc4cnc(NC5COC5)nc4n(C[C@@H]4CNCCO4)c3=O)c(Cl)c2)n1 [Example I-188, 6-[2-chloro-4-(6-methyl-2-pyridyl)phenyl]-8-[[(2S)-morpholin-2-yl]methyl]-2-(oxetan-3-ylamino)pyrido[2,3-d]pyrimidin-7-one]
Ki: 8.1 nM

CCNc1ncc2cc(-c3ccc(-c4cncc(C)n4)cc3Cl)c(=O)n(C[C@H]3[C@@H]4CNC[C@@H]43)c2n1 [Example I-82, 8-((1R,5S,6R)-3-Azabicyclo[3.1.0]hexan-6-ylmethyl)-6-(2-chloro-4-(6-methylpyrazin-2-yl)phenyl)-2-(ethylamino)pyrido[2,3-d]pyrimidin-7(8H)-one]
Ki: 9.6 nM

CNc1ncc2cc(-c3ccc(-c4cccc(C)n4)cc3C)c(=O)n(CCCO)c2n1 [Example I-132, 8-(3-hydroxypropyl)-2-(methylamino)-6-[2-methyl-4-(6-methyl-2-pyridyl)phenyl]pyrido[2,3-d]pyrimidin-7-one]
Ki: 14.5 nM

Cc1cccc(-c2ccc(-c3cc4cnc(NC5COC5)nc4n(C[C@H]4CC[C@H](N)CC4)c3=O)c(Cl)c2)n1 [Example I-33, 8-(((1r,4r)-4-aminocyclohexyl)methyl)-6-(2-chloro-4-(6-methylpyridin-2-yl)phenyl)-2-(oxetan-3-ylamino)pyrido[2,3-d]pyrimidin-7(8H)-one]
Ki: 0.5 nM
